15 compounds from patent US8017612B2, “Piperazine compound and use thereof as a HCV polymerase inhibitor” (priority 2006, dated 2011) can be followed below.

Experiment [1] has as its target T1, HCV polymerase (NS5B) type 1a (Hepatitis C virus genotype 1a, UniProt P26664).
T1 construct: made in house; host or cells: Escherichia coli (by the 'similar method' of the 1b enzyme)
Nature of the experiment: Assay of enzyme (HCV polymerase) inhibitory activity, type 1a enzyme. The format is biochemical, HCV type 1a (cloned from the blood of patients). The procedure, abridged:
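Patient-derived type 1a NS5B (C-terminal 47-aa deletion, His-tagged, E. coli-expressed) at 1.5 μg/ml was reacted with 5 μg/ml 3′UTR-containing substrate RNA, 50 μM ATP/GTP/CTP, 2 μM UTP plus [3H]UTP, pH 7.5, 25° C for 60 min. TCA-precipitated RNA radioactivity was counted; IC50 from ± compound.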

Experiment [2] has as its target T2, HCV polymerase (NS5B) type 1b (Hepatitis C virus genotype 1b, UniProt P26663).
T2 construct: a region encoding NS5B (J Virol 1991 March, 65(3), 1105-13, 544 amino acids after deletion of 47 amino acids on the C-terminal); 6xHis (C); made in house; host or cells: Escherichia coli
Nature of the experiment: Assay of enzyme (HCV polymerase) inhibitory activity, type 1b enzyme. The class given is biochemical, HCV BK strain (type 1b). The procedure, abridged: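 NS5B from HCV BK strain (type 1b), C-terminal 47 aa deleted, C-terminal His6-tagged, E. coli-expressed, 0.5 μg/ml, with ~450 nt substrate RNA carrying the 3′ UTR (polyU, 3′X) at 5 μg/ml. Incubation 60 min at 25 °C with 50 μM ATP/GTP/CTP, 2 μM UTP plus [3H]UTP, pH 7.5 Tris.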

Where [3] appears, read: HCV polymerase inhibitory activity (IC50), 1a, type 1a enzyme 1.5 μg/ml, 25° C., 60 min.
The mark [4] stands for this setting: HCV polymerase inhibitory activity (IC50), 1b, type 1b enzyme 0.5 μg/ml, 25° C., 60 min.
Where [5] appears, read: HCV polymerase inhibitory activity IC50, 1a, type 1a enzyme.
[6] abbreviates: HCV polymerase inhibitory activity IC50, 1b, type 1b enzyme.

The term IC50 denotes the concentration that gives 50% inhibition. A lower IC50 goes with inhibition by little substance. Regarding `CC(C)c1ccc(CNC(=O)[C@H]2CN(c3ncc(C(=O)O)c(O)n3)CCN2S(=O)(=O)c2ccc(C(F)(F)F)cc2)cc1` [Example 357, 4-hydroxy-2-[(R)-3-(4-isopropyl-benzylcarbamoyl)-4-(4-trifluoromethyl-benzenesulfonyl)-piperazin-1-yl]-pyrimidine-5-carboxylic acid], the concentration for half-maximal inhibition (IC50) is above 1000 nM in experiment [1] (setting [3]) and 100 to 1000 nM in experiment [2] (setting [4]).
As for `CC(C)c1ccc(CNC(=O)[C@H]2CN(c3nc(CC(=O)O)cs3)CCN2S(=O)(=O)c2ccc(C(F)(F)F)cc2)cc1` [Example 259, {2-[(R)-3-(4-isopropyl-benzylcarbamoyl)-4-(4-trifluoromethyl-benzenesulfonyl)-piperazin-1-yl]-thiazol-4-yl}-acetic acid], the IC50 was 100 to 1000 nM in experiment [1] (setting [3]) and below 100 nM in experiment [2] (setting [4]).
For `CCC(F)(F)c1ccc(CNC(=O)[C@H]2CN(C(=O)Cn3nnc(C(C)C)n3)CCN2S(=O)(=O)c2ccc(OC(F)(F)F)cc2)cc1` [Example 542, (R)-4-[2-(5-isopropyl-tetrazol-2-yl)-acetyl]-1-(4-trifluoromethoxy-benzenesulfonyl)-piperazine-2-carboxylic acid 4-(1,1-difluoro-propyl)-benzylamide] the same measures were below 100 nM and below 100 nM.
The matching figures for `COc1ccccc1CNC(=O)C1CN(C(C)=O)CCN1S(=O)(=O)c1ccc(C(C)C)cc1` (stereo not drawn) [Example 50, 4-acetyl-1-(4-isopropyl-benzenesulfonyl)-piperazine-2-carboxylic acid 2-methoxy-benzylamide]: above 1000 nM and above 1000 nM.
Turning to `O=C(NCc1ccc(OC(F)(F)F)cc1)[C@H]1CN(c2nc3nnncc3s2)CCN1S(=O)(=O)c1ccc(C(F)(F)F)cc1` [Example 1006, (R)-4-thiazolo[4,5-d][1,2,3]triazin-6-yl-1-(4-trifluoromethyl-benzenesulfonyl)-piperazine-2-carboxylic acid 4-trifluoromethoxy-benzylamide], the concentration for half-maximal inhibition (IC50) in experiment [1] (setting [5]) and in experiment [2] (setting [6]) was below 100 nM each time.
As for `CC(C)c1ccc(CNC(=O)[C@H]2CN(c3cnn(CC(=O)O)c3)CCN2S(=O)(=O)c2ccc(OC(F)(F)F)cc2)cc1` [Example 493, {4-[(R)-3-(4-isopropyl-benzylcarbamoyl)-4-(4-trifluoromethoxy-benzenesulfonyl)-piperazin-1-yl]-pyrazol-1-yl}-acetic acid], the concentration for half-maximal inhibition (IC50) in experiment [1] (setting [3]) and in experiment [2] (setting [4]) was 100 to 1000 nM throughout.
On to `O=C(NCc1ccc(OC(F)(F)F)cc1)[C@H]1CN(c2nn3ccc(=O)nc3s2)CCN1S(=O)(=O)c1ccc(OC(F)(F)F)cc1` [Example 977, (R)-4-(7-oxo-7H-[1,3,4]thiadiazolo[3,2-a]pyrimidin-2-yl)-1-(4-trifluoromethoxy-benzenesulfonyl)-piperazine-2-carboxylic acid 4-trifluoromethoxy-benzylamide], for which the IC50 in experiment [1] (setting [5]) and in experiment [2] (setting [6]) was below 100 nM in each case.
Take `CC(=O)N1CCN(S(=O)(=O)c2ccc(C(C)C)cc2)[C@@H](C(=O)NCc2ccc(C(C)C)cc2F)C1` [Example 292, (R)-4-acetyl-1-(4-isopropyl-benzenesulfonyl)-piperazine-2-carboxylic acid 2-fluoro-4-isopropyl-benzylamide]: the IC50 in experiment [1] (setting [3]) was 100 to 1000 nM; in experiment [2] (setting [4]) it was below 100 nM.
Consider `CCCc1ccc(CNC(=O)[C@H]2CN(c3nc(C)c(C(=O)C(=O)NC)s3)CCN2S(=O)(=O)c2ccc(OC(F)(F)F)cc2)cc1` [Example 859, (R)-4-(4-methyl-5-methylaminooxalyl-thiazol-2-yl)-1-(4-trifluoromethoxy-benzenesulfonyl)-piperazine-2-carboxylic acid 4-propyl-benzylamide], for which the IC50 in experiment [1] (setting [5]) was 100 to 1000 nM; in experiment [2] (setting [6]), below 100 nM.
Turning to `CC(=O)N1CCN(S(=O)(=O)c2ccc(C(C)C)cc2)[C@@H](C(=O)NCCc2ccccn2)C1` [Example 396, (R)-4-acetyl-1-(4-isopropyl-benzenesulfonyl)-piperazine-2-carboxylic acid (2-pyridin-2-yl-ethyl)-amide], the IC50 in experiment [1] (setting [3]) and in experiment [2] (setting [4]) was above 1000 nM throughout.
For `O=C(NCc1ccc(S(F)(F)(F)(F)F)cc1)[C@H]1CN(c2nc3ncncc3s2)CCN1S(=O)(=O)c1ccc(OC(F)(F)F)cc1` [Example 996, (R)-4-thiazolo[4,5-d]pyrimidin-2-yl-1-(4-trifluoromethoxy-benzenesulfonyl)-piperazine-2-carboxylic acid 4-pentafluorosulfanyl-benzylamide], the IC50 in experiment [1] (setting [5]) and in experiment [2] (setting [6]) was below 100 nM throughout.
`CC(C)(C)c1ccc(CNC(=O)[C@H]2CN(C(=O)/C=C/C(=O)O)CCN2S(=O)(=O)c2ccc(OC(F)(F)F)cc2)cc1` [Example 668, (E)-4-[(R)-3-(4-tert-butyl-benzylcarbamoyl)-4-(4-trifluoromethoxy-benzenesulfonyl)-piperazin-1-yl]-4-oxo-but-2-enoic acid]: the half-maximal inhibitory concentration (IC50) in experiment [1] (setting [5]) and in experiment [2] (setting [6]) was above 1000 nM each time.
Turning to `CCC(F)(F)c1ccc(CNC(=O)[C@H]2CN(c3cnc4cncnc4n3)CCN2S(=O)(=O)c2ccc(C(F)(F)F)cc2)cc1` [Example 686, (R)-4-pteridin-7-yl-1-(4-trifluoromethyl-benzenesulfonyl)-piperazine-2-carboxylic acid 4-(1,1-difluoro-propyl)-benzylamide], the 50% inhibitory concentration (IC50) in experiment [1] (setting [5]) and in experiment [2] (setting [6]) was below 100 nM each time.
For the compound `CC(C)c1ccc(CNC(=O)[C@H]2CN(C(=O)Nc3ccc(Cl)cc3)CCN2S(=O)(=O)c2ccc(C(F)(F)F)cc2)cc1` [Example 271, (R)-4-(4-trifluoromethyl-benzenesulfonyl)-piperazine-1,3-dicarboxylic acid 1-[(4-chloro-phenyl)-amide] 3-(4-isopropyl-benzylamide)], the IC50 in experiment [1] (setting [3]) and in experiment [2] (setting [4]) was above 1000 nM in each case.
For `CCCCc1ccc(S(=O)(=O)N2CCN(C(C)=O)CC2C(=O)NCc2ccc(C(F)(F)F)cc2)cc1` (stereo not drawn) [Example 91, 4-acetyl-1-(4-butyl-benzenesulfonyl)-piperazine-2-carboxylic acid 4-trifluoromethyl-benzylamide], the IC50 in experiment [1] (setting [3]) and in experiment [2] (setting [4]) was above 1000 nM in each case.
